The structures appear in SMILES notation.

Experiment in all cases: absorption spectrum of BV complex; anaerobic bilin reductase assay with HPLC
What all share (format): biochemical
Common to all, as to details: ferredoxin (Synechococcus sp. PCC 7002), FNR, NADPH 100 uM; 10 uM BV, 10 uM PubS; pH 8.5, 30 °C

Assay [1] has as its target T1, ΔΝ_PpPubS (PpPubS, PubS) (Physcomitrium patens, UniProt I3TC50, F238A/N310R).
T1 construct: residues 1-55 (N-terminal disordered region) deleted; N-terminal His-tag, pET28a, synthetic codon-optimised gene, E. coli C41

For assay [2], the target named is T2, ΔΝ_PpPubS (PpPubS, PubS) (Physcomitrium patens, UniProt I3TC50, N310R).
T2 construct: residues 1-55 (N-terminal disordered region) deleted; N-terminal His-tag, pET28a, synthetic codon-optimised gene, E. coli C41
T2 sequence (I3TC50 entry or part of it N310R): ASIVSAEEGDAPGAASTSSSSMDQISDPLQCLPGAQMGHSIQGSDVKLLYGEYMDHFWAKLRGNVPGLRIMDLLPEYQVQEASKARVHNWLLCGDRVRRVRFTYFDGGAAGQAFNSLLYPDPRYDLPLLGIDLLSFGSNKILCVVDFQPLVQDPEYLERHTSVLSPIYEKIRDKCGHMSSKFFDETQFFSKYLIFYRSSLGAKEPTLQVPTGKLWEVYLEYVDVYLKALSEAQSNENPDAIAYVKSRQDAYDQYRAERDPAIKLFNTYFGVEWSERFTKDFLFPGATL

In assay [3] the target is T3, ΔΝ_PpPubS (PpPubS, PubS) (Physcomitrium patens, UniProt I3TC50, E240A/N310R).
T3 construct: residues 1-55 (N-terminal disordered region) deleted; N-terminal His-tag, pET28a, synthetic codon-optimised gene, E. coli C41
T3 sequence (I3TC50 entry or part of it E240A/N310R): as the sequence (I3TC50 entry or part of it N310R) above, with E185A counted along it

T1 sequence (I3TC50 entry or part of it F238A/N310R): as the sequence (I3TC50 entry or part of it N310R) above, with F183A counted along it

In the case of `C=CC1=C(C)C(=Cc2[nH]c(C=C3N=C(C=C4NC(=O)C(C)=C4C=C)C(C)=C3CCC(=O)O)c(CCC(=O)O)c2C)NC1=O` [biliverdin IXα], the “absorption spectrum of BV complex; anaerobic bilin reductase assay with HPLC” value in assay [1] was “Spectroscopic observations of these variants showed a decrease in BV after the addition of NADPH”; in assay [2], “PpPubS_N310R exhibited a decrease in BV absorbance similar to the wild-type molecule”; in assay [3], “Spectroscopic observations of these variants showed a decrease in BV after the addition of NADPH”.

The values above are taken from PMC11879140, “Engineering of Phycourobilin Synthase: PubS to a Two-Electron Reductase” (Plant and Cell Physiology, 2024).
